US10570184B2, “GLP-1/glucagon receptor co-agonists for medical use” (Novo Nordisk A/S, priority 2014, dated 2020)
Starred links: 1 amine or outer side, 2 acyl side, 3 side chain; linkers in the order of their positions; H or OH if unused. Non-standard residues stand in square brackets, D forms with d. Residues, ends and D or L forms follow the SMILES beside them. Groups on a side chain read outwards from the residue. *: point of attachment. C18 diacid = O=C(O)CCCCCCCCCCCCCCCCC(=O)*; γGlu = O=C(O)[C@H](CCC(=O)[*:2])N[*:1]; Ac4c = NC1(C(=O)O)CCC1; AEEA = NCCOCCOCC(=O)O; Aib = CC(C)(N)C(=O)O

Assays:
[1] = Assay (III) ThT fibrillation assay for physical stability; type: physicochemical; settings: 250 μM in 10 mM HEPES buffer, 37° C., shaking 960 rpm
How it was run: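 Glucagon derivative at 250 μM in 10 mM HEPES pH 7.5 with 1 μM ThT was incubated at 37 °C under 960 rpm orbital shaking. Fluorescence (ex 444/em 485 nm) was read every 20 min and fitted for lag time (t0−2τ) and kapp (1/τ). Recovery was soluble peptide after centrifugation/filtration, by RP-HPLC, as percent of initial.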

human GLP-1 receptor = target: T1, human GLP-1 receptor (Homo sapiens, UniProt P43220); experiment: Assay (I)(a) GLP-1 receptor activation, CRE luciferase reporter gene assay in BHK cells; type: cell-based; settings: without presence of serum albumin; read-out: GLP-1R EC50 (pM) [Assay (I)(a)]
T1 construct: expressed in transfected cells; host or cells: membranes of BHK cells (parent BHKTS13), clone FCW467-12A
How it was run: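 Stable BHK clone expressing human GLP-1 receptor with CRE-driven firefly luciferase, 5×10EE3 cells/well in medium with 2% ovalbumin and 0.2% Pluronic F-68. Compounds at 1×10EE-13 to 1×10EE-6 M final, 3 h at 37° C.; luminescence read, EC50 (pM) from four-parameter fit.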

T1 sequence (P43220 24-463): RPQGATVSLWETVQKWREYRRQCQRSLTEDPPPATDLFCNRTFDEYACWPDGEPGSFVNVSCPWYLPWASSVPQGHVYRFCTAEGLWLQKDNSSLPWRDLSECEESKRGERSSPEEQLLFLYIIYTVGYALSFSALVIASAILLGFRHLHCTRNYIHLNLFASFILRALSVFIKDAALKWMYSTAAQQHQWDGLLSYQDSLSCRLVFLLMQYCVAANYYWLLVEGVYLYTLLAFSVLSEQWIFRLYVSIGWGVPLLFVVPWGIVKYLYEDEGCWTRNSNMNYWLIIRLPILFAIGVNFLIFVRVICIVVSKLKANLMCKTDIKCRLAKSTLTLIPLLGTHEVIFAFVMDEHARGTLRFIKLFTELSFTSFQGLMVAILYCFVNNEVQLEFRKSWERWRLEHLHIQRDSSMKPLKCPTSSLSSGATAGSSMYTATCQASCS

Structure (SMILES)	ThT Assay Lag time (h) [Assay (III), pH 7.5] [1] [h]	EC50 (human GLP-1 receptor) [pM]
CC[C@H](C)[C@H](NC(=O)[C@H](CC(C)C)NC(=O)[C@H](Cc1c[nH]c2ccccc12)NC(=O)[C@H](CCC(N)=O)NC(=O)[C@@H](NC(=O)[C@H](Cc1ccccc1)NC(=O)[C@H](CC(=O)O)NC(=O)[C@H](CCCNC(=N)N)NC(=O)[C@H](C)NC(=O)[C@H](CCCNC(=N)N)NC(=O)[C@H](CCCNC(=N)N)NC(=O)[C@H](C)NC(=O)[C@H](CC(=O)O)NC(=O)[C@H](CC(C)C)NC(=O)[C@H](Cc1ccc(O)cc1)NC(=O)[C@H](CCCCN)NC(=O)[C@H](CO)NC(=O)[C@H](CC(C)C)NC(=O)[C@H](CC(=O)O)NC(=O)[C@H](CO)NC(=O)[C@@H](NC(=O)[C@H](Cc1ccccc1)NC(=O)[C@@H](NC(=O)CNC(=O)[C@H](CCC(N)=O)NC(=O)C(C)(C)NC(=O)[C@@H](N)Cc1c[nH]cn1)[C@@H](C)O)[C@@H](C)O)C(C)C)C(=O)N[C@@H](CC(N)=O)C(=O)N[C@@H](CCCCNC(=O)CC[C@H](NC(=O)CC[C@H](NC(=O)COCCOCCNC(=O)COCCOCCNC(=O)CC[C@H](NC(=O)CCCCCCCCCCCCCCCCC(=O)O)C(=O)O)C(=O)O)C(=O)O)C(N)=O [Chem. 20, N^ε29-[(4S)-4-carboxy-4-[[(4S)-4-carboxy-4-[[2-[2-[2-[[2-[2-[2-[[(4S)-4-carboxy-4-(17-carboxyheptadecanoylamino)butanoyl]amino]ethoxy]ethoxy]acetyl]amino]ethoxy]ethoxy]acetyl]amino]butanoyl]amino]butanoyl]-[Aib2,Leu10,Ala16,Arg20,Ile27,Lys29]-Glucagon amide] (H-H[Aib]QGTFTSDLSKYLDARRARDFVQWLINK([γGlu-γGlu-AEEA-AEEA-γGlu-C18 diacid])-NH2; N-terminus assumed)	45.0	4
CC[C@H](C)[C@H](NC(=O)[C@H](CC(C)C)NC(=O)[C@H](Cc1c[nH]c2ccccc12)NC(=O)[C@H](CCC(N)=O)NC(=O)[C@@H](NC(=O)[C@H](Cc1ccccc1)NC(=O)[C@H](CCC(=O)O)NC(=O)[C@H](CCCNC(=N)N)NC(=O)[C@H](C)NC(=O)[C@H](CCCNC(=N)N)NC(=O)[C@H](CCCNC(=N)N)NC(=O)[C@H](C)NC(=O)[C@H](CC(=O)O)NC(=O)[C@H](CC(C)C)NC(=O)[C@H](Cc1ccc(O)cc1)NC(=O)[C@H](CCCCN)NC(=O)[C@H](CO)NC(=O)[C@H](CC(C)C)NC(=O)[C@H](CC(=O)O)NC(=O)[C@H](CO)NC(=O)[C@@H](NC(=O)[C@H](Cc1ccccc1)NC(=O)[C@@H](NC(=O)CNC(=O)[C@H](CCC(N)=O)NC(=O)C(C)(C)NC(=O)[C@@H](N)Cc1c[nH]cn1)[C@@H](C)O)[C@@H](C)O)C(C)C)C(=O)N[C@@H](CC(N)=O)C(=O)N[C@@H](CCCCNC(=O)CC[C@H](NC(=O)CC[C@H](NC(=O)COCCOCCNC(=O)COCCOCCNC(=O)CC[C@H](NC(=O)CCCCCCCCCCCCCCCCC(=O)O)C(=O)O)C(=O)O)C(=O)O)C(N)=O [Chem. 21, N^ε29-[(4S)-4-carboxy-4-[[(4S)-4-carboxy-4-[[2-[2-[2-[[2-[2-[2-[[(4S)-4-carboxy-4-(17-carboxyheptadecanoylamino)butanoyl]amino]ethoxy]ethoxy]acetyl]amino]ethoxy]ethoxy]acetyl]amino]butanoyl]amino]butanoyl]-[Aib2,Leu10,Ala16,Arg20,Glu21,Ile27,Lys29]-Glucagon amide] (H-H[Aib]QGTFTSDLSKYLDARRAREFVQWLINK([γGlu-γGlu-AEEA-AEEA-γGlu-C18 diacid])-NH2; N-terminus assumed)	45.0	3
CC[C@H](C)[C@H](NC(=O)[C@H](CC(C)C)NC(=O)[C@H](Cc1c[nH]c2ccccc12)NC(=O)[C@H](C)NC(=O)[C@@H](NC(=O)[C@H](Cc1ccccc1)NC(=O)[C@H](CC(=O)O)NC(=O)[C@H](CCCNC(=N)N)NC(=O)[C@H](C)NC(=O)[C@H](CCCNC(=N)N)NC(=O)[C@H](CCCNC(=N)N)NC(=O)[C@H](CC(C)C)NC(=O)[C@H](CC(=O)O)NC(=O)[C@H](CC(C)C)NC(=O)[C@H](Cc1ccc(O)cc1)NC(=O)[C@H](CCCCN)NC(=O)[C@H](CO)NC(=O)[C@H](CC(C)C)NC(=O)[C@H](CC(=O)O)NC(=O)[C@H](CO)NC(=O)[C@@H](NC(=O)[C@H](Cc1ccccc1)NC(=O)[C@@H](NC(=O)CNC(=O)[C@H](CCC(N)=O)NC(=O)C(C)(C)NC(=O)[C@@H](N)Cc1c[nH]cn1)[C@@H](C)O)[C@@H](C)O)C(C)C)C(=O)N[C@@H](CC(N)=O)C(=O)N[C@@H](CCCCNC(=O)CC[C@H](NC(=O)CC[C@H](NC(=O)COCCOCCNC(=O)COCCOCCNC(=O)CC[C@H](NC(=O)CCCCCCCCCCCCCCCCC(=O)O)C(=O)O)C(=O)O)C(=O)O)C(N)=O [Chem. 24, N^ε29-[(4S)-4-carboxy-4-[[(4S)-4-carboxy-4-[[2-[2-[2-[[2-[2-[2-[[(4S)-4-carboxy-4-(17-carboxyheptadecanoylamino)butanoyl]amino]ethoxy]ethoxy]acetyl]amino]ethoxy]ethoxy]acetyl]amino]butanoyl]amino]butanoyl]-[Aib2,Leu10,Leu16,Arg20,Ala24,Ile27,Lys29]-Glucagon amide] (H-H[Aib]QGTFTSDLSKYLDLRRARDFVAWLINK([γGlu-γGlu-AEEA-AEEA-γGlu-C18 diacid])-NH2; N-terminus assumed)	45.0	3
CC[C@H](C)[C@H](NC(=O)[C@H](CC(C)C)NC(=O)[C@H](Cc1c[nH]c2ccccc12)NC(=O)[C@H](CCC(N)=O)NC(=O)[C@@H](NC(=O)[C@H](Cc1ccccc1)NC(=O)[C@H](CCC(=O)O)NC(=O)[C@H](CCCNC(=N)N)NC(=O)[C@H](C)NC(=O)[C@H](CCCNC(=N)N)NC(=O)[C@H](CCCNC(=N)N)NC(=O)[C@H](CO)NC(=O)[C@H](CCC(=O)O)NC(=O)[C@H](CC(C)C)NC(=O)[C@H](Cc1ccc(O)cc1)NC(=O)[C@H](CCCCN)NC(=O)[C@H](CO)NC(=O)[C@H](CC(C)C)NC(=O)[C@H](CC(=O)O)NC(=O)[C@H](CO)NC(=O)[C@@H](NC(=O)[C@H](Cc1ccccc1)NC(=O)[C@@H](NC(=O)CNC(=O)[C@H](CCC(N)=O)NC(=O)C(C)(C)NC(=O)[C@@H](N)Cc1c[nH]cn1)[C@@H](C)O)[C@@H](C)O)C(C)C)C(=O)N[C@@H](CCCCNC(=O)CC[C@H](NC(=O)CC[C@H](NC(=O)COCCOCCNC(=O)COCCOCCNC(=O)CC[C@H](NC(=O)CC[C@H](NC(=O)CCCCCCCCCCCCCCCCC(=O)O)C(=O)O)C(=O)O)C(=O)O)C(=O)O)C(=O)N[C@H](C(N)=O)[C@@H](C)O [Chem. 25, N^ε28-[(4S)-4-carboxy-4-[[(4S)-4-carboxy-4-[[2-[2-[2-[[2-[2-[2-[[(4S)-4-carboxy-4-[[(4S)-4-carboxy-4-(17-carboxyheptadecanoylamino)butanoyl]amino]butanoyl]amino]ethoxy]ethoxy]acetyl]amino]ethoxy]ethoxy]acetyl]amino]butanoyl]amino]butanoyl]-[Aib2,Leu10,Glu15,Arg20,Glu21,Ile27,Lys28]-Glucagon amide] (H-H[Aib]QGTFTSDLSKYLESRRAREFVQWLIK([γGlu-γGlu-AEEA-AEEA-γGlu-γGlu-C18 diacid])T-NH2; N-terminus assumed)	23.0	2
CC[C@H](C)[C@H](NC(=O)[C@H](CC(=O)O)NC(=O)[C@H](CO)NC(=O)[C@@H](NC(=O)[C@H](Cc1ccccc1)NC(=O)[C@@H](NC(=O)CNC(=O)[C@H](CCC(N)=O)NC(=O)C1(NC(=O)[C@@H](N)Cc2c[nH]cn2)CCC1)[C@@H](C)O)[C@@H](C)O)C(=O)N[C@@H](CO)C(=O)N[C@@H](CCCCN)C(=O)N[C@@H](Cc1ccc(O)cc1)C(=O)N[C@@H](CC(C)C)C(=O)N[C@@H](CCC(=O)O)C(=O)N[C@@H](CO)C(=O)N[C@@H](CCCNC(=N)N)C(=O)N[C@@H](CCCNC(=N)N)C(=O)N[C@@H](C)C(=O)N[C@@H](CCCNC(=N)N)C(=O)N[C@@H](CCC(=O)O)C(=O)N[C@@H](Cc1ccccc1)C(=O)N[C@H](C(=O)N[C@@H](CCC(N)=O)C(=O)N[C@@H](Cc1c[nH]c2ccccc12)C(=O)N[C@@H](CC(C)C)C(=O)N[C@H](C(=O)N[C@@H](CCCCNC(=O)CC[C@H](NC(=O)CC[C@H](NC(=O)COCCOCCNC(=O)COCCOCCNC(=O)CC[C@H](NC(=O)CC[C@H](NC(=O)CCCCCCCCCCCCCCCCC(=O)O)C(=O)O)C(=O)O)C(=O)O)C(=O)O)C(=O)N[C@H](C(N)=O)[C@@H](C)O)[C@@H](C)CC)C(C)C [Chem. 26, N^ε28-[(4S)-4-carboxy-4-[[(4S)-4-carboxy-4-[[2-[2-[2-[[2-[2-[2-[[(4S)-4-carboxy-4-[[(4S)-4-carboxy-4-(17-carboxyheptadecanoylamino)butanoyl]amino]butanoyl]amino]ethoxy]ethoxy]acetyl]amino]ethoxy]ethoxy]acetyl]amino]butanoyl]amino]butanoyl]-[Acb2,Ile10,Glu15,Arg20,Glu21,Ile27,Lys28]-Glucagon amide] (H-H[Ac4c]QGTFTSDISKYLESRRAREFVQWLIK([γGlu-γGlu-AEEA-AEEA-γGlu-γGlu-C18 diacid])T-NH2; N-terminus assumed)	45.0	2
